The target in the test is T1, human EGF-R (Homo sapiens, UniProt P00533).
T1 construct: expressed in transfected cells; host or cells: F/L-HERc cells (murine IL-3-dependent FDC-P1 line transduced with LXSN retroviral vector carrying human EGF-R cDNA; packaging line GP+E86)
T1 sequence (P00533 25-1210): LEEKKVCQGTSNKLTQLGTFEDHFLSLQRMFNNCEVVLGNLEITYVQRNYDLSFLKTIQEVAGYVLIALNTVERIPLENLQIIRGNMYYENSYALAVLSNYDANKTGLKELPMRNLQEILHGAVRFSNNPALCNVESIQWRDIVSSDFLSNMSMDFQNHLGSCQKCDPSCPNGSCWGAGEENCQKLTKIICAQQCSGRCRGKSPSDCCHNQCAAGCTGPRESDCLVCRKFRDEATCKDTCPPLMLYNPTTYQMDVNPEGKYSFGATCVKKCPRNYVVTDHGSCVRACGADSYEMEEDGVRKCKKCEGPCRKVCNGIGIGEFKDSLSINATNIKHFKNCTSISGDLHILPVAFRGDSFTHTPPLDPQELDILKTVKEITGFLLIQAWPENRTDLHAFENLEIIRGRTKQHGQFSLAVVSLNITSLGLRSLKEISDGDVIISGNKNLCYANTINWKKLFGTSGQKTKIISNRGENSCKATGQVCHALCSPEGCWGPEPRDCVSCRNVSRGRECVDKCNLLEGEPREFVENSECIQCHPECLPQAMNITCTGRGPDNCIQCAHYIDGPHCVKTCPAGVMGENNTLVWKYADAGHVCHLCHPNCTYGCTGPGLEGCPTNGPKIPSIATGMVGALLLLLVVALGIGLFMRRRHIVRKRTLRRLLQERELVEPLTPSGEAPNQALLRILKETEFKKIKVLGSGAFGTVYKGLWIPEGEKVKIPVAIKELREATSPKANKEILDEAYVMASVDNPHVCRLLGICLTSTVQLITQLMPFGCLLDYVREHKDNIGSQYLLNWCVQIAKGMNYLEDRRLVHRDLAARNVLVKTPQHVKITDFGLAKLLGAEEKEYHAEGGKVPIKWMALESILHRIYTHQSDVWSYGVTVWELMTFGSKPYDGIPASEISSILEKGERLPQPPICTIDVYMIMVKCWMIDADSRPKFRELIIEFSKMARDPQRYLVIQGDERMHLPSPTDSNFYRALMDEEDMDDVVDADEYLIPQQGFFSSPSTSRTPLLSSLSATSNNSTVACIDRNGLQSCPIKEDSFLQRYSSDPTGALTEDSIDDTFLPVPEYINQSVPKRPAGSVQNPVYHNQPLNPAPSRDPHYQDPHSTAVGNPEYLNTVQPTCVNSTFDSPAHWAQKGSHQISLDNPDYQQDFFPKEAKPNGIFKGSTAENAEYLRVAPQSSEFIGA
As to the kind of experiment: Inhibition of EGF-dependent proliferation of F/L-HERc cells (Cell Titer 96 AQueous assay). The test is classed as cell-based. To be noted: F/L-HERc cells (murine IL-3-dependent line expressing human EGF-R), stimulated with EGF 20 ng/ml, 48 hours at 37° C. The source says:
A cell line of murine origin dependent on interleukin-3-(IL-3) which was genetically modified to express functional human EGF-R was used here. The proliferation of these cells known as F/L-HERc can therefore be stimulated either by murine IL-3 or by EGF (cf. von Rüden, T. et al. in EMBO J. 7, 2749-2756 (1988). and Pierce, J. H. et al. in Science 239, 628-631 (1988)).
The starting material used for the F/L-HERc cells was the cell line FDC-P1, the production of which has been described by Dexter, T. M. et al. in J. Exp. Med. 152, 1036-1047 (1980). Alternatively, however, other growth-factor-dependent cells may also be used (cf. for example Pierce, J. H. et al. in Science 239, 628-631 (1988), Shibuya, H. et al. in Cell 70, 57-67 (1992) and Alexander, W. S. et al. in EMBO J. 10, 3683-3691 (1991)). For expressing the human EGF-R cDNA (cf. Ullrich, A. et al. in Nature 309, 418-425 (1984)) recombinant retroviruses were used as described by von Rüden, T. et al., EMBO J. 7, 2749-2756 (1988), except that the retroviral vector LXSN (cf. Miller, A. D. et al. in BioTechniques 7, 980-990 (1989)) was used for the expression of the EGF-R cDNA and the line GP+E86 (cf. Markowitz, D. et al. in J. Virol. 62, 1120-1124 (1988)) was used as the packaging cell.
F/L-HERc cells were cultivated in RPMI/1640 medium (Bio Whittaker), supplemented with 10% foetal calf serum (FCS, Boehringer Mannheim), 2 mM glutamine (Bio Whittaker), standard antibiotics and 20 ng/ml of human EGF (Promega), at 37° C. and 5% CO2. In order to investigate the inhibitory activity of the compounds according to the invention, 1.5×10^4 cells per well were cultivated in triplicate in 96-well dishes in the above medium (200 μl), the cell proliferation being stimulated with either EGF (20 ng/ml) or murine IL-3. The IL-3 used was obtained from culture supernatants of the cell line X63/0 mIL-3 (cf. Karasuyama, H. et al. in Eur. J. Immunol. 18, 97-104 (1988)). The compounds according to the invention were dissolved in 100% dimethylsulphoxide (DMSO) and added to the cultures in various dilutions, the maximum DMSO concentration being 1%. The cultures were incubated for 48 hours at 37° C.
In order to determine the inhibitory activity of the compounds according to the invention the relative cell number was measured in O.D. units using the Cell Titer 96™ AQueous Non-Radioactive Cell Proliferation Assay (Promega). The relative cell number was calculated as a percentage of the control (F/LHERc cells without inhibitor) and the concentration of active substance which inhibits the proliferation of the cells by 50% (IC50) was derived therefrom.
In turn, `O=C1CC(N2CCN(CCOc3cc4ncnc(Nc5ccc(F)c(Cl)c5)c4cc3OC3CCCC3)CC2)CO1` (stereo not shown) [3(1), 4-[(3-chloro-4-fluorophenyl)amino]-6-cyclopentyloxy-7-{2-[4-(2-oxo-tetrahydrofuran-4-yl)-piperazin-1-yl]-ethoxy}-quinazoline] displayed an IC50 of 11 nM.

In turn, `O=C1OCCC1N1CCN(CCOc2cc3ncnc(Nc4ccc(F)c(Cl)c4)c3cc2OC2CCCC2)CC1` (stereo not shown) [Example 1, 4-[(3-chloro-4-fluorophenyl)amino]-6-cyclopentyloxy-7-{2-[4-(2-oxo-tetrahydrofuran-3-yl)-piperazin-1-yl]-ethoxy}-quinazoline] showed an IC50 of 4 nM.

The compound `O=C1CC(N2CCN(CCOc3cc4ncnc(Nc5ccc(F)c(Cl)c5)c4cc3OCC3CCCC3)CC2)CO1` (stereo not shown) [Example 3, 4-[(3-chloro-4-fluorophenyl)amino]-6-cyclopentylmethoxy-7-{2-[4-(2-oxo-tetrahydrofuran-4-yl)-piperazin-1-yl]-ethoxy}-quinazoline] had an IC50 of 62 nM.

Compound `O=C1CC[C@H](CN2CCN(CCOc3cc4ncnc(Nc5ccc(F)c(Cl)c5)c4cc3OC3CCCC3)CC2)O1` [Example 4, 4-[(3-chloro-4-fluorophenyl)amino]-6-cyclopentyloxy-7-(2-{4-[(R)-(2-oxo-tetrahydrofuran-5-yl)methyl]-piperazin-1-yl}-ethoxy)-quinazoline] returned an IC50 of 67 nM.

As usually defined, the IC50 is the concentration at which inhibition is half-maximal. A lower IC50 goes with higher potency.
